Experimental data as given in patent US12172966B1, “2-(1H-imidazole-1-carbonyl)benzoic acid as an anticancer compound” (KING FAISAL UNIVERSITY, priority 2023, dated 2024).

What was measured:
[1] = tested on: human prostate cancer cells (PC3); assay: Assessment of cytotoxicity by SRB assay, prostate cancer cells; type: cell-based; settings: for IC50: mean±SD
Description: (§1) The anticancer activity of the described synthesized compounds against highly aggressive androgen-independent metastatic human prostate cancer cells (PC3) and osteosarcoma (MG-63) cells. The human prostate cancer cells (PC3) and human osteosarcoma cells (MG-63) were obtained from Nawah Scientific Inc. (Mokatam, Cairo, Egypt) and cultured in DMEM (Dulbecco's modified eagle's medium), Gibco, USA, supplemented with fetal bovine serum (FBS) at a concentration of 10% and 100 U/mL of penicillin and streptomycin (PS). The Cells were incubated at 37° C. in a humidified environment that contained 5% CO2.
(§2) Cells were seeded in 96-well plates as aliquots of 100 μL cell suspension and incubated in a complete media for 24 h. afterward, cells were treated with 2-(1H-imidazole-1-carbonyl)benzoic acid at diverse concentrations ranging from 0.01 μM to 100 μM for 72 h. Then, cells were fixed at 4° C. for one hour with 150 μL of 10% trichloroacetic acid (TCA). After washing the cells five times with distilled water, […] of sulforhodamine (SRB) solution (0.4% w/v) was added and incubated for 10 min at room temperature in a dark place. Cells were washed with 1% acetic acid three times and allowed to air-dry. Then, 150 μL of Tris pH 10.5 (10 mM) was added, and the absorbance was measured at 540 nm using a BMG LABTECH®—FLUOstar Omega microplate reader (Ortenberg, Germany). Half maximal inhibitory concentrations (IC50) values were calculated for each experiment using GraphPad Prism 6 software. IC50 values were reported as mean±SD.
(§3) The inhibition was calculated using the following equation: Inhibition %=100−Average Viability

[2] = tested on: human osteosarcoma cells (MG-63); assay: Assessment of cytotoxicity by SRB assay, osteosarcoma cells; type: cell-based; settings: for IC50: mean±SD
Description: as §1, §2, §3

[3] = Homo sapiens, MG-63 cells, 72 h

O=C(O)c1ccccc1C(=O)n1ccnc1 [2-(1H-imidazole-1-carbonyl)benzoic acid]
inhibition at 10 µg/mL ([1]; Homo sapiens, PC-3, 72 h, PC-3 cells, 10 μg/ml, 72 h): 93% | IC50 ([1]; Homo sapiens, PC-3 cells, 72 h): 2.67 ± 0.03 µM | Prostate cancer (PC-3) Inhibition % ([1]; PC-3 cells, 10 μg/ml, 72 h): 93.44% | IC50 values, prostate cancer cell line ([1]; PC-3 cells, bound stated in text for both cell lines): < 4 µM | antiproliferative activities against cancer cells (PC3) ([1]; result in words): excellent antiproliferative activities | inhibition at 10 µg/mL ([2]; Homo sapiens, MG-63 cells, 10 μg/ml, 72 h): 88.9% | inhibition at 100 µg/mL ([2]; Homo sapiens, MG-63 cells, 100 μg/ml, 72 h): 90.9% | IC50 [2, 3]: 3.55 ± 0.2 µM | IC50 values, osteosarcoma cell line ([2]; MG-63 cells, bound stated in text for both cell lines): < 4 µM | antiproliferative activities against osteosarcoma (MG-63) cells ([2]; result in words): excellent antiproliferative activities

COc1cccc2c1C(=O)c1c(O)c3c(c(O)c1C2=O)C[C@@](O)(C(=O)CO)C[C@@H]3O[C@H]1C[C@H](N)[C@H](O)[C@H](C)O1 [DOX, Doxorubicin, reference compound]
IC50 ([1]; Homo sapiens, PC-3 cells, 72 h): 7.5 ± 0.45 µM | IC50 [2, 3]: 9.3 ± 1.1 µM
